As usually defined, the pIC50 is −log10 of the IC50, conventionally taken in molar units.

These results are taken from patent publication US11130769B2 (Prelude Therapeutics Incorporated, priority 2018, dated 2021).

pIC50, pKi: −log10 of the molar value.

Assay [1] deals with H929 cells. The assay can be described thus: Cell viability assay (H929 10 FBS). The assay is classed as cell-based. To be noted: Homo sapiens, NCI-H929, 24 hours, read-out: H929_10FBS IC50. The method, boiled down: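 H929 cells, 4000/well, in RPMI 1640 with 10% FBS, sodium pyruvate, HEPES and glucose were exposed to compound 24 h at 37 °C. Viability read as luminescence after 30-60 min at RT with CellTiter-Glo or ATPlite 1 Step.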

The target of assay [2] is MCL-1 (Homo sapiens (Human), UniProt Q07820). The assay can be described thus: Cell free Mcl-1:Bim affinity assay (fluorescence polarization competition). The assay is classed as binding. To be noted: 15 nM MCL-1, 5 nM FITC-Bim, 1 hour at room temperature; class symbols; read-out: BIM_Ki. The method, boiled down:
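Compounds competed with FITC-labelled Bim peptide (5 nM) for MCL-1 (15 nM) in HEPES/NaCl buffer with 1% DMSO, 1 h at room temperature. Fluorescence polarization (535 nm emission) gave % inhibition versus DMSO and positive controls; IC50 from 10-point curves, converted to Ki by the Nikolovska-Coleska equation.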
Background: Fluorescence polarisation rises when a labelled molecule tumbles more slowly, as on binding a larger partner.

MCL-1, sequence (Q07820 whole entry): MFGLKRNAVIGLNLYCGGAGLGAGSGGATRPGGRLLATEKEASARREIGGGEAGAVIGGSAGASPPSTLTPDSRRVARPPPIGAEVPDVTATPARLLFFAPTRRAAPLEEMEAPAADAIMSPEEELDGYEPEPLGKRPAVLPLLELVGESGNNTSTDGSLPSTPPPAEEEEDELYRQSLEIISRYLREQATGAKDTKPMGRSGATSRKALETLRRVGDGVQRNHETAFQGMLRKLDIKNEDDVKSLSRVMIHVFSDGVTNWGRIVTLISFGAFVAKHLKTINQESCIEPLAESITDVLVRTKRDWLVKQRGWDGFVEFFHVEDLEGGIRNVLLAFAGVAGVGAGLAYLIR

Take `CO[C@@H]1/C=C/C[C@H](C)[C@@H](CO)C(=O)NS(=O)(=O)c2ccc3c(c2)N(C[C@@H]2CC[C@H]21)C[C@@]1(CCCc2cc(Cl)ccc21)CO3` [Example 94, (3R,6R,7R,8E,11S,12S,22S)-6′-Chloro-12-(hydroxymethyl)-7-methoxy-11-methyl-15,15-dioxo-spiro[20-oxa-15-thia-1,14-diazatetracyclo[14.7.2.03,6.019,24]pentacosa-8,16,18,24-tetraene-22,1′-tetralin]-13-one]: the pIC50 in assay [1] is less than 6.00. Further, the pKi in assay [2] was greater than 9.00.

Consider `CO[C@@H]1/C=C/CC[C@@H](CO)C(=O)NS(=O)(=O)c2ccc3c(c2)N(C[C@@H]2CC[C@H]21)C[C@@]1(CCCc2cc(Cl)ccc21)CO3` [Example 95, (3R,6R,7R,8E,12S,22S)-6′-Chloro-12-(hydroxymethyl)-7-methoxy-15,15-dioxo-spiro[20-oxa-15-thia-1,14-diazatetracyclo[14.7.2.03,6.019,24]pentacosa-8,16,18,24-tetraene-22,1′-tetralin]-13-one], for which the negative logarithm of the IC50 (pIC50) in assay [1] was less than 6.00. For the same compound, in assay [2], the pKi is 7.00 to 9.00.

On to `COC[C@@H]1CC/C=C/[C@@H](OC)[C@@H]2CC[C@H]2CN2C[C@@]3(CCCc4cc(Cl)ccc43)COc3ccc(cc32)S(=O)(=O)NC1=O` [Example 96, (3R,6R,7R,8E,12S,22S)-6′-Chloro-12-(methoxymethyl)-7-methoxy-15,15-dioxo-spiro[20-oxa-15-thia-1,14-diazatetracyclo[14.7.2.03,6.019,24]pentacosa-8,16,18,24-tetraene-22,1′-tetralin]-13-one], for which, in assay [1], the pIC50 is less than 6.00. Further, in assay [2], the pKi is greater than 9.00.

As for `COCCOC[C@@H]1CC/C=C/[C@@H](OC)[C@@H]2CC[C@H]2CN2C[C@@]3(CCCc4cc(Cl)ccc43)COc3ccc(cc32)S(=O)(=O)NC1=O` [Example 97, (3R,6R,7R,8E,12S,22S)-6′-Chloro-12-((2-methoxyethoxy)methyl)-7-methoxy-15,15-dioxo-spiro[20-oxa-15-thia-1,14-diazatetracyclo[14.7.2.03,6.019,24]pentacosa-8,16,18,24-tetraene-22,1′-tetralin]-13-one], the pIC50 in assay [1] is less than 6.00. The pKi in assay [2] is greater than 9.00.

For the compound `O=C1Cc2cccc(c2)S(=O)(=O)C[C@@H]2CC[C@H]2CN2C[C@@]3(CCCc4cc(Cl)ccc43)COc3ccc(cc32)S(=O)(=O)N1` [Example 98, (3R,6R,24S)-6′-Chloro-8,8,17,17-tetraoxo-spiro[22-oxa-8,17-dithia-1,16-diazapentacyclo[16.7.2.19,13.03,6.021,26]octacosa-9(28),10,12,18(27),19,21(26)-hexaene-24,1′-tetralin]-15-one], in assay [1], the pIC50 is less than 6.00. The pKi in assay [2] is 7.00 to 9.00.

For the compound `CN1C(=O)OC[C@@H]2CC[C@H]2CN2C[C@@]3(CCCc4cc(Cl)ccc43)COc3ccc(cc32)S(=O)(=O)NC(=O)N2CC[C@@H]1C2` [Example 101, (3R,6R,11R,24S)-6′-Chloro-10-methyl-17,17-dioxo-spiro[8,22-dioxa-17-thia-1,10,14,16-tetrazapentacyclo[16.7.2.111,14.03,6.021,26]octacosa-18(27),19,21(26)-triene-24,1′-tetralin]-9,15-dione], the pIC50 in assay [1] is less than 6.00. Moreover, the pKi in assay [2] is greater than 9.00.

As for `O=C1N[C@@H]2CCN(C2)C(=O)NS(=O)(=O)c2ccc3c(c2)N(C[C@@H]2CC[C@H]2CO1)C[C@@]1(CCCc2cc(Cl)ccc21)CO3` [Example 102, (3R,6R,11R,24S)-6′-Chloro-17,17-dioxo-spiro[8,22-dioxa-17-thia-1,10,14,16-tetrazapentacyclo[16.7.2.111,14.03,6.021,26]octacosa-18(27),19,21(26)-triene-24,1′-tetralin]-9,15-dione], the negative-log IC50 (pIC50) in assay [1] was less than 6.00. In addition, the pKi in assay [2] is 7.00 to 9.00.

On to `CN1C(=O)OC[C@@H]2CC[C@H]2CN2C[C@@]3(CCCc4cc(Cl)ccc43)COc3ccc(cc32)S(=O)(=O)NC(=O)N2CC[C@H]1C2` [Example 103, (3R,6R,11S,24S)-6′-Chloro-10-methyl-17,17-dioxo-spiro[8,22-dioxa-17λ^6-thia-1,10,14,16-tetrazapentacyclo[16.7.2.1^11,14.0{circumflex over (°)}3,6.0^21,26]octacosa-18,20,26-triene-24,1′-tetralin]-9,15-dione], for which, in assay [1], the pIC50 was less than 6.00. The pKi in assay [2] was greater than 9.00.

With `O=C1Cc2cc(OCCN3CCOCC3)cc(c2)OC[C@@H]2CC[C@H]2CN2C[C@@]3(CCCc4cc(Cl)ccc43)COc3ccc(cc32)S(=O)(=O)N1` [Example 105, (3R,6R,24S)-6′-Chloro-11-(2-morpholinoethoxy)-17,17-dioxo-spiro[8,22-dioxa-17-thia-1,16-diazapentacyclo[16.7.2.19,13.03,6.021,26]octacosa-9(28),10,12,18(27),19,21(26)-hexaene-24,1′-tetralin]-15-one], in assay [1], the negative-log IC50 (pIC50) is less than 6.00. Also, in assay [2], the pKi is 7.00 to 9.00.

For `CO[C@@H]1/C=C/CCN(C)C(=O)NS(=O)(=O)c2ccc3c(c2)N(C[C@@H]2CC[C@H]21)C[C@@]1(CCCc2cc(Cl)ccc21)CO3` [Example 107, (3R,6R,7R,8E,22S)-6′-Chloro-7-methoxy-12-methyl-15,15-dioxo-spiro[20-oxa-15-thia-1,12,14-triazatetracyclo[14.7.2.03,6.019,24]pentacosa-8,16,18,24-tetraene-22,1′-tetralin]-13-one], the pIC50 in assay [1] was greater than 6.00. Besides, the pKi in assay [2] is 7.00 to 9.00.

`CC(C)N1CCN(CC2(O)/C=C/COC(C)(C)C(=O)NS(=O)(=O)c3ccc4c(c3)N(C[C@@H]3CC[C@H]32)C[C@@]2(CCCc3cc(Cl)ccc32)CO4)CC1` (stereo partly drawn) [Example 109, (3R,6R,8E,22S)-6′-Chloro-7-hydroxy-7-[(4-isopropylpiperazin-1-yl)methyl]-12,12-dimethyl-15,15-dioxo-spiro[11,20-dioxa-15-thia-1,14-diazatetracyclo[14.7.2.03,6.019,24]pentacosa-8,16,18,24-tetraene-22,1′-tetralin]-13-one]: in assay [1], the pIC50 was less than 6.00. For the same compound, the pKi in assay [2] was 7.00 to 9.00.

With `CO[C@H]1/C=C/COCC(=O)NS(=O)(=O)c2ccc3c(c2)N(C[C@@H]2CC[C@H]21)C[C@@]1(CCCc2cc(Cl)ccc21)CO3` [Example 111, (3R,6R,7S,8E,22S)-6′-Chloro-7-methoxy-15,15-dioxo-spiro[[11,20]dioxa[15]thia-1,14-diazatetracyclo[14.7.2.03,6.019,24]pentacosa[8,16(25),17,19(24)]tetraene-22,1′-tetralin]-13-one], the pIC50 in assay [1] is less than 6.00. The pKi in assay [2] is 7.00 to 9.00.

On to `CO[C@@H]1/C=C/COCC(=O)NS(=O)(=O)c2ccc3c(c2)N(C[C@@H]2CC[C@H]21)C[C@@]1(CCCc2cc(Cl)ccc21)CO3` [Example 112, (3R,6R,7R,8E,22S)-6′-Chloro-7-methoxy-15,15-dioxo-spiro[[11,20]dioxa[15]thia-1,14-diazatetracyclo[14.7.2.03,6.019,24]pentacosa[8,16(25),17,19(24)]tetraene-22,1′-tetralin]-13-one], for which the pIC50 in assay [1] is less than 6.00. Besides, in assay [2], the pKi is 7.00 to 9.00.

`CC(=O)O[C@H]1/C=C/CO[C@@H](C)C(=O)NS(=O)(=O)c2ccc3c(c2)N(C[C@@H]2CC[C@H]21)C[C@@]1(CCCc2cc(Cl)ccc21)CO3` [Example 113, [(3R,6R,7S,8E,12S,22S)-6′-Chloro-12-methyl-13,15,15-trioxo-spiro[11,20-dioxa-15-thia-1,14-diazatetracyclo[14.7.2.03,6.019,24]pentacosa-8,16,18,24-tetraene-22,1′-tetralin]-7-yl] acetate]: the pIC50 in assay [1] was greater than 6.00. Besides, in assay [2], the pKi is greater than 9.00.

On to `CO[C@@H]1/C=C/CO[C@@H](C)C(=O)NS(=O)(=O)c2ccc3c(c2)N(C[C@@H]2CC[C@H]21)C[C@@]1(CCCc2cc(Cl)ccc21)CO3` [Example 114, (3R,6R,7R,8E,12S,22S)-6′-Chloro-7-methoxy-12-methyl-15,15-dioxo-spiro[11,20-dioxa-15-thia-1,14-diazatetracyclo[14.7.2.03,6.019,24]pentacosa-8,16,18,24-tetraene-22,1′-tetralin]-13-one], for which the pIC50 in assay [1] is greater than 6.00. The pKi in assay [2] was greater than 9.00.

For the compound `CO[C@@H]1/C=C/CO[C@H](C)C(=O)NS(=O)(=O)c2ccc3c(c2)N(C[C@@H]2CC[C@H]21)C[C@@]1(CCCc2cc(Cl)ccc21)CO3` [Example 115, (3R,6R,7R,8E,12R,22S)-6′-Chloro-7-methoxy-12-methyl-15,15-dioxo-spiro[11,20-dioxa-15-thia-1,14-diazatetracyclo[14.7.2.03,6.019,24]pentacosa-8,16,18,24-tetraene-22,1′-tetralin]-13-one], the pIC50 in assay [1] is less than 6.00. Also, the pKi in assay [2] was 7.00 to 9.00.

Take `CO[C@@H]1/C=C/CNC2(CCC2)C(=O)NS(=O)(=O)c2ccc3c(c2)N(C[C@@H]2CC[C@H]21)C[C@@]1(CCCc2cc(Cl)ccc21)CO3` [Example 116, (3R,6R,7R,8E,22S)-6′-Chloro-7-methoxy-12,12-(1,3-propylene)-15,15-dioxo-spiro[[20]oxa-15-thia-1,11,14-triazatetracyclo[14.7.2.03,6.019,24]pentacosa[8,16(25),17,19(24)]tetraene-22,1′-tetralin]-13-one]: in assay [1], the negative-log IC50 (pIC50) was greater than 6.00. For the same compound, in assay [2], the pKi was 7.00 to 9.00.

Regarding `CO[C@@H]1/C=C/CN[C@@H](C)C(=O)NS(=O)(=O)c2ccc3c(c2)N(C[C@@H]2CC[C@H]21)C[C@@]1(CCCc2cc(Cl)ccc21)CO3` [Example 117, (3R,6R,7R,8E,12S,22S)-6′-Chloro-7-methoxy-12-methyl-15,15-dioxo-spiro[20-oxa-15-thia-1,11,14-triazatetracyclo[14.7.2.03,6.019,24]pentacosa-8,16(25),17,19(24)-tetraene-22,1′-tetralin]-13-one], in assay [1], the pIC50 is less than 6.00. Moreover, the pKi in assay [2] was 7.00 to 9.00.
